Experimental data as given in the NIST ThermoML archive (doi:10.1021/acs.jced.8b00537).
± gives the expanded uncertainty stated by the source.

Assay: xn = mol fraction of the nth substance listed
Settings: 100 kPa, Liquid; for viscosity: Capillary tube (Ostwald / Ubbelohde) method; for speed of sound: Frequency=3 MHz, Single path-length method; for mass density: Vibrating tube method

CC[S+](CC)CC.O=S(=O)([N-]S(=O)(=O)C(F)(F)F)C(F)(F)F [triethylsulfonium bis((trifluoromethyl)sulfonyl)imide] + CCCO
Settings	mass density [kg/m3]	speed of sound [m/s]	viscosity [mPa·s]
293.15 K, x1 = 0.04926	910 ± 2	1205.5 ± 6	2.874 ± 0.23
293.15 K, x1 = 0.1003	996 ± 2	1194.3 ± 6	4.059 ± 0.33
293.15 K, x1 = 0.1993	1120 ± 2	1195 ± 6	5.998 ± 0.48
293.15 K, x1 = 0.3008	1209 ± 3	1203.1 ± 6	7.862 ± 0.63
293.15 K, x1 = 0.3991	1273 ± 3	1212.3 ± 6	10.68 ± 0.86
293.15 K, x1 = 0.5023	1324 ± 3	1222.2 ± 6	12.28 ± 0.98
293.15 K, x1 = 0.5987	1363 ± 3	1228.5 ± 6	15.93 ± 1.3
293.15 K, x1 = 0.6987	1395 ± 3	1235.2 ± 6	19.92 ± 1.6
293.15 K, x1 = 0.7947	1421 ± 3	1240.6 ± 6.1	24.95 ± 2
293.15 K, x1 = 0.903	1446 ± 3	1245.8 ± 6.1	31.64 ± 2.5
293.15 K, x1 = 1	1465 ± 3	1252.9 ± 6.1	39.64 ± 3.2
298.15 K, x1 = 0.04926	906 ± 2	1190.3 ± 6	2.515 ± 0.2
298.15 K, x1 = 0.1003	992 ± 2	1179.9 ± 6	3.438 ± 0.28
298.15 K, x1 = 0.1993	1115 ± 2	1181.8 ± 6	5.082 ± 0.41
298.15 K, x1 = 0.3008	1204 ± 2	1190.5 ± 6	6.704 ± 0.54
298.15 K, x1 = 0.3991	1268 ± 3	1200.2 ± 6	9.087 ± 0.73
298.15 K, x1 = 0.5023	1319 ± 3	1210.3 ± 6	10.45 ± 0.84
298.15 K, x1 = 0.5987	1358 ± 3	1217 ± 6	13.49 ± 1.1
298.15 K, x1 = 0.6987	1390 ± 3	1223.8 ± 6	16.79 ± 1.3
298.15 K, x1 = 0.7947	1416 ± 3	1229.4 ± 6.1	20.88 ± 1.7
298.15 K, x1 = 0.903	1441 ± 3	1234.8 ± 6.1	26.25 ± 2.1
298.15 K, x1 = 1	1460 ± 3	1242.5 ± 6.1	32.43 ± 2.6
303.15 K, x1 = 0.04926	901 ± 2	1174.8 ± 6	2.216 ± 0.18
303.15 K, x1 = 0.1003	987 ± 2	1165.6 ± 6	2.978 ± 0.24
303.15 K, x1 = 0.1993	1111 ± 2	1168.7 ± 6	4.379 ± 0.35
303.15 K, x1 = 0.3008	1199 ± 2	1178.1 ± 6	5.78 ± 0.46
303.15 K, x1 = 0.3991	1263 ± 3	1188.2 ± 6	7.814 ± 0.63
303.15 K, x1 = 0.5023	1314 ± 3	1198.7 ± 6	8.985 ± 0.72
303.15 K, x1 = 0.5987	1353 ± 3	1205.5 ± 6	11.56 ± 0.93
303.15 K, x1 = 0.6987	1386 ± 3	1212.6 ± 6	14.33 ± 1.1
303.15 K, x1 = 0.7947	1411 ± 3	1218.3 ± 6.1	17.71 ± 1.4
303.15 K, x1 = 0.903	1436 ± 3	1223.9 ± 6.1	22.1 ± 1.8
303.15 K, x1 = 1	1455 ± 3	1232.4 ± 6.1	26.92 ± 2.2
308.15 K, x1 = 0.04926	897 ± 2	1159.5 ± 6	1.962 ± 0.16
308.15 K, x1 = 0.1003	983 ± 2	1151.3 ± 6	2.609 ± 0.21
308.15 K, x1 = 0.1993	1106 ± 2	1155.7 ± 6	3.816 ± 0.31
308.15 K, x1 = 0.3008	1194 ± 2	1165.8 ± 6	5.034 ± 0.4
308.15 K, x1 = 0.3991	1258 ± 3	1176.3 ± 6	6.787 ± 0.54
308.15 K, x1 = 0.5023	1310 ± 3	1187.1 ± 6	7.806 ± 0.63
308.15 K, x1 = 0.5987	1348 ± 3	1194.2 ± 6	10.01 ± 0.8
308.15 K, x1 = 0.6987	1381 ± 3	1201.5 ± 6	12.35 ± 0.99
308.15 K, x1 = 0.7947	1407 ± 3	1207.4 ± 6.1	15.19 ± 1.2
308.15 K, x1 = 0.903	1431 ± 3	1213.1 ± 6.1	18.81 ± 1.5
308.15 K, x1 = 1	1450 ± 3	1222.4 ± 6.1	22.64 ± 1.8
313.15 K, x1 = 0.04926	893 ± 2	1144.2 ± 6	1.747 ± 0.14
313.15 K, x1 = 0.1003	978 ± 2	1137.2 ± 6	2.304 ± 0.18
313.15 K, x1 = 0.1993	1101 ± 2	1142.8 ± 6	3.354 ± 0.27
313.15 K, x1 = 0.3008	1190 ± 2	1153.5 ± 6	4.421 ± 0.35
313.15 K, x1 = 0.3991	1253 ± 3	1164.5 ± 6	5.945 ± 0.48
313.15 K, x1 = 0.5023	1305 ± 3	1175.6 ± 6	6.842 ± 0.55
313.15 K, x1 = 0.5987	1343 ± 3	1183 ± 6	8.742 ± 0.7
313.15 K, x1 = 0.6987	1376 ± 3	1190.5 ± 6	10.75 ± 0.86
313.15 K, x1 = 0.7947	1402 ± 3	1196.6 ± 6.1	13.15 ± 1.1
313.15 K, x1 = 0.903	1426 ± 3	1202.5 ± 6.1	16.18 ± 1.3
313.15 K, x1 = 1	1446 ± 3	1212.7 ± 6.1	19.24 ± 1.5
318.15 K, x1 = 0.04926	888 ± 2	1129 ± 6	1.563 ± 0.12
318.15 K, x1 = 0.1003	974 ± 2	1123.1 ± 6	2.049 ± 0.16
318.15 K, x1 = 0.1993	1097 ± 2	1129.9 ± 6	2.972 ± 0.24
318.15 K, x1 = 0.3008	1185 ± 2	1141.3 ± 6	3.913 ± 0.31
318.15 K, x1 = 0.3991	1249 ± 3	1152.7 ± 6	5.25 ± 0.42
318.15 K, x1 = 0.5023	1300 ± 3	1164.2 ± 6	6.044 ± 0.49
318.15 K, x1 = 0.5987	1338 ± 3	1171.9 ± 6	7.698 ± 0.62
318.15 K, x1 = 0.6987	1371 ± 3	1179.6 ± 6	9.441 ± 0.76
318.15 K, x1 = 0.7947	1397 ± 3	1185.8 ± 6.1	11.49 ± 0.92
318.15 K, x1 = 0.903	1422 ± 3	1191.9 ± 6.1	14.06 ± 1.1
318.15 K, x1 = 1	1441 ± 3	1203.1 ± 6.1	16.53 ± 1.3
323.15 K, x1 = 0.04926	884 ± 2	1113.8 ± 6	1.404 ± 0.11
323.15 K, x1 = 0.1003	969 ± 2	1109.1 ± 6	1.833 ± 0.15
323.15 K, x1 = 0.1993	1092 ± 2	1117.1 ± 6	2.651 ± 0.21
323.15 K, x1 = 0.3008	1180 ± 2	1129.2 ± 6	–
323.15 K, x1 = 0.3991	1244 ± 3	1141.1 ± 6	4.67 ± 0.38
323.15 K, x1 = 0.5023	1295 ± 3	1152.9 ± 6	5.379 ± 0.43
323.15 K, x1 = 0.5987	1334 ± 3	1160.8 ± 6	6.831 ± 0.55
323.15 K, x1 = 0.6987	1366 ± 3	1168.8 ± 6	8.347 ± 0.67
323.15 K, x1 = 0.7947	1392 ± 3	1175.2 ± 6.1	10.12 ± 0.81
323.15 K, x1 = 0.903	1417 ± 3	1181.5 ± 6.1	12.31 ± 0.99
323.15 K, x1 = 1	1436 ± 3	1193.7 ± 6.1	14.31 ± 1.1
328.15 K, x1 = 0.04926	879 ± 2	1098.6 ± 6	1.268 ± 0.1
328.15 K, x1 = 0.1003	965 ± 2	1095.1 ± 6	1.648 ± 0.13
328.15 K, x1 = 0.1993	1087 ± 2	1104.3 ± 6	2.38 ± 0.19
328.15 K, x1 = 0.3008	1175 ± 2	1117.2 ± 6	3.13 ± 0.25
328.15 K, x1 = 0.3991	1239 ± 3	1129.5 ± 6	4.187 ± 0.34
328.15 K, x1 = 0.5023	1290 ± 3	1141.6 ± 6	4.822 ± 0.39
328.15 K, x1 = 0.5987	1329 ± 3	1149.9 ± 6	6.099 ± 0.49
328.15 K, x1 = 0.6987	1362 ± 3	1158.1 ± 6	7.438 ± 0.6
328.15 K, x1 = 0.7947	1388 ± 3	1164.7 ± 6.1	8.976 ± 0.72
328.15 K, x1 = 0.903	1412 ± 3	1171.2 ± 6.1	10.86 ± 0.87
328.15 K, x1 = 1	1431 ± 3	1184.7 ± 6.1	12.5 ± 1
333.15 K, x1 = 0.04926	875 ± 2	1083.4 ± 6	1.149 ± 0.092
333.15 K, x1 = 0.1003	960 ± 2	1081.1 ± 6	1.489 ± 0.12
333.15 K, x1 = 0.1993	1082 ± 2	1091.5 ± 6	2.148 ± 0.17
333.15 K, x1 = 0.3008	1170 ± 2	1105.2 ± 6	2.825 ± 0.23
333.15 K, x1 = 0.3991	1234 ± 3	1118 ± 6	3.775 ± 0.3
333.15 K, x1 = 0.5023	1285 ± 3	1130.5 ± 6	4.346 ± 0.35
333.15 K, x1 = 0.5987	1324 ± 3	1139.1 ± 6	5.483 ± 0.44
333.15 K, x1 = 0.6987	1357 ± 3	1147.5 ± 6	6.667 ± 0.54
333.15 K, x1 = 0.7947	1383 ± 3	1154.3 ± 6.1	8.024 ± 0.64
333.15 K, x1 = 0.903	1407 ± 3	1161 ± 6.1	9.653 ± 0.78
333.15 K, x1 = 1	1427 ± 3	1175.9 ± 6.1	10.99 ± 0.88
338.15 K, x1 = 0.04926	870 ± 2	1068.2 ± 6	1.044 ± 0.084
338.15 K, x1 = 0.1003	955 ± 2	1067.1 ± 6	1.352 ± 0.11
338.15 K, x1 = 0.1993	1078 ± 2	1078.7 ± 6	1.95 ± 0.16
338.15 K, x1 = 0.3008	1166 ± 2	1093.3 ± 6	2.563 ± 0.21
338.15 K, x1 = 0.3991	1229 ± 3	1106.6 ± 6	3.422 ± 0.27
338.15 K, x1 = 0.5023	1281 ± 3	1119.3 ± 6	3.941 ± 0.32
338.15 K, x1 = 0.5987	1319 ± 3	1128.3 ± 6	4.956 ± 0.4
338.15 K, x1 = 0.6987	1352 ± 3	1137 ± 6	6.007 ± 0.48
338.15 K, x1 = 0.7947	1378 ± 3	1144 ± 6.1	7.206 ± 0.58
338.15 K, x1 = 0.903	1403 ± 3	1150.8 ± 6.1	8.628 ± 0.69
338.15 K, x1 = 1	1422 ± 3	1166.8 ± 6.1	9.726 ± 0.78
343.15 K, x1 = 0.04926	866 ± 2	1052.9 ± 6	0.953 ± 0.076
343.15 K, x1 = 0.1003	951 ± 2	1053.3 ± 6	1.232 ± 0.099
343.15 K, x1 = 0.1993	1073 ± 2	1066.2 ± 6	1.778 ± 0.14
343.15 K, x1 = 0.3008	1161 ± 2	1081.5 ± 6	2.339 ± 0.19
343.15 K, x1 = 0.3991	1224 ± 3	1095.4 ± 6	3.123 ± 0.25
343.15 K, x1 = 0.5023	1276 ± 3	1108.3 ± 6	3.594 ± 0.29
343.15 K, x1 = 0.5987	1315 ± 3	1117.8 ± 6	4.507 ± 0.36
343.15 K, x1 = 0.6987	1347 ± 3	1126.8 ± 6	5.444 ± 0.44
343.15 K, x1 = 0.7947	1373 ± 3	1134 ± 6.1	6.506 ± 0.52
343.15 K, x1 = 0.903	1398 ± 3	1141 ± 6.1	7.766 ± 0.62
343.15 K, x1 = 1	1417 ± 3	1157.6 ± 6.1	8.659 ± 0.69
